One data set relates to humans. To be noted: particularly in relation to the liver and kidney; cited from earlier work.
The target of another data set is thymidylate synthetase (Mus musculus, UniProt P07607). Briefly: inhibitory effect on the enzyme thymidylate synthetase in vitro. To be noted: in vitro enzyme inhibition; read-out: IC50 against thymidylate synthetase. Type of data set: biochemical. From the text:
(§1) Compounds of this type are believed to act as anti-tumour agents by inhibiting the enzyme thymidylate synthetase. Their anti-tumour activity may be assessed in vitro by determining their inhibitory effect on that enzyme, and in cell cultures by their inhibitory effect on the cell line L1210.
(§2) As also stated above a quinazoline of the invention is believed to act as an anti-tumour agent by inhibiting the enzyme thymidylate synthetase. This anti-tumour activity may be assessed in vitro by determining the inhibitory effect on that enzyme and is cell cultures by the inhibitory effect on the mouse leukaemia cell line L1210 (UK Patent Specification No. 2065653B).

A further data set relates to L1210 cell line. Briefly: inhibitory effect on the mouse leukaemia cell line L1210 in cell culture. Type of data set: cell-based. The following applies: read-out: IC50 against the L1210 cell line.
Source text: as §1, §2

thymidylate synthetase, sequence (P07607 whole entry): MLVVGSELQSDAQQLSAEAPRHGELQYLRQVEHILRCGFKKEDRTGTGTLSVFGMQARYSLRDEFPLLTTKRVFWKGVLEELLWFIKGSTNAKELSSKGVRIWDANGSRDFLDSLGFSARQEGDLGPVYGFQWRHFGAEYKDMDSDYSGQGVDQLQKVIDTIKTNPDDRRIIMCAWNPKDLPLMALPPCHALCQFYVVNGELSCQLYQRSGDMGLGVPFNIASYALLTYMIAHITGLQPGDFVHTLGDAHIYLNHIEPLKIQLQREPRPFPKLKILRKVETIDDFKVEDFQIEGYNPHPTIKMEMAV

In the case of `C#CCN(Cc1ccc2nc(N)[nH]c(=O)c2c1)c1ccc(C(=O)N[C@@H](CCC(=O)O)C(=O)O)cc1` [CB3717], the “symptoms of toxicity in humans” value in the data set on humans was “shows symptoms of toxicity in humans, particularly in relation to the liver and kidney”.
Take `C#CCN(Cc1cc2c(=O)[nH]c(C)nc2cc1C)c1ccc(C(=O)N[C@@H](CCC(=O)O)C(=O)O)cc1` [N-[p-[N-(3,4-dihydro-2,7-dimethyl-4-oxoquinazolin-6-ylmethyl)-N-(prop-2-ynyl)amino]benzoyl]-L-glutamic acid]: the IC50 turned out to be 30 nM at thymidylate synthetase and 180 nM in the data set on L1210 cell line.

(Values after patent US4981856A, “Anti-tumor agents” (Imperial Chemical Industries PLC, priority 1987, dated 1991).)
